Results from patent US20060120962A1, “Cardiac safe, rapid medication delivery” (priority 2004, published 2006).
Several values for one entry are separate records, joined by “and”; a condition that tells them apart may be missing. Equal entries are not always repeated. Where two headings read alike, the source gives them in different places.

How the values were obtained:
[1] = humans; reported; cited from earlier work
[2] = Clinical observations and body weights after prochlorperazine administration in dogs; assay type: in vivo; conditions: dog
in vivo = conditions: female, mongrel, dog, 7 mg; for AUC(0-t): AUC0-10 min; for bioavailability: F, based on venous AUCinf
Description: The objective of this study was to determine the concentration of prochlorperazine in dog plasma processed from whole blood taken from both the left ventricle and venous circulation immediately following administration of prochlorperazine aerosol to the animal by way of the thermal aerosol generation process described herein, during a single deep inhalation.
This study consisted of four young adult, female, mongrel dogs. The animals were treated with the test article, prochlorperazine (PCZ), in three separate surgical/dosing sessions. In sessions 1 and 3, the test article was administered intravenously (IV), either via a 120-second infusion (Session 1) or as a five-second bolus (Session 3). In session 2, the test article was administered using a thermal aerosol generation process, during a single deep inhalation. Following treatment in each surgical/dosing session, blood samples were collected from the left ventricle and from a peripheral vein for bioanalysis. Left ventricular and venous plasma samples were obtained prior to drug administration. In addition, left ventricular plasma samples were obtained every five seconds during the first 30 seconds following drug administration, as well as frequently thereafter, with the last left ventricular sample collected 10 minutes following drug administration. Venous plasma samples were obtained from 15 seconds to 24 hours following drug administration. Clinical observations and body weights were recorded for all animals at specified time points.
The animals were treated in three separate surgical/dosing sessions. For each session, the animals were appropriately anesthetized prior to administration of the test article. Each surgical/dosing session was separated by a washout period of approximately 48 hours from the time of the previous treatment administration.
Session 1: While the animals were anesthetized, the test article (1.4 mL of 5 mg/mL prochloperazine edisylate injection) was administered as a 120-second intravenous (IV) manual infusion via a saphenous vein. Blood sampling commenced at the time of initiation of infusion (t=0).
Session 2: While the animals were anesthetized, an aerosol generation and administration system was connected in-line to an endotracheal tube to allow for delivery of the aerosol test article (prochlorperazine coated on a chemical, single dose heat package). The aerosol resulting from actuation of the prochlorperazine by the aerosol generation and administration system was administered during a single deep inhalation. Blood sampling commenced at the time of initiation of the deep inhalation (t=0).
Session 3: While the animals were anesthetized, the test article (1.4 mL of 5 mg/mL prochloperazine edisylate injection) was administered as a five-second IV bolus via a saphenous vein. Blood sampling commenced at the time of initiation of the bolus (t=0).
Each animal was premedicated with atropine sulfate (0.02 mg/kg, intramuscularly) and acepromazine (0.2 mg/kg, IM, to a maximum dose of 3 mg) prior to induction of anesthesia. At least 10 minutes later, the animal was anesthetized with Propofol(4-8 mg/kg, intravenously). The animal was then intubated and maintained in anesthesia with isoflurane inhalant anesthetic, delivered through a volume-regulated ventilator. An intravenous catheter was placed in a peripheral vessel for administration of lactated Ringer's solution during the procedure at a rate of approximately 5 mL/kg/hr.
A midline incision was made in the neck and one of the carotid arteries was exposed. The artery was mobilized a distance of about 5 cm and two Vessel-Loops® were placed around it, proximally and distally.

[3] = Clinical observations and body weights after alprazolam administration in dogs; assay type: in vivo; conditions: dog
Description: (§1) This study consisted of five young adult, female, mongrel dogs. Four animals per session were treated with the test article, alprazolam, in two separate surgical/dosing sessions. In Session 1 the test article was administered intravenously (IV) as a 5-second bolus. […] The animals were dosed at a level of 0.7 mg of alprazolam in both dosing sessions.

[4] = Pharmacokinetics of aerosolized alprazolam in dog (left ventricular and venous plasma) vs IV bolus; assay type: in vivo; conditions: for AUC(0-t) / bioavailability / Cmax / Tmax / AUC / half-life: female, mongrel, 0.7 mg; for AUC(0-t): venous plasma; for Tmax: median
Description: as §1
Four animals per session were treated with the test article, alprazolam, in two separate surgical/dosing sessions. The animals were dosed at a level of 0.7 mg of alprazolam in both dosing sessions.
Anesthesia was performed substantially as described in Example 1.
Whole blood samples were centrifuged. […] All plasma samples were stored until analyzed. […] Plasma samples were mixed with spiking solutions of alprazolam, α-hydroxyalprazolam, 4-hydroxyalprazolam and an internal standard (alprazolam-d5). […] Drug or metabolite concentrations were calculated by comparing (drug or metabolite)/internal standard ratios to standard curves prepared in dog plasma.
Individual plasma concentration-time data from four animals, two sampling sites, and two dose routes were analyzed by noncompartmental pharmacokinetic methods via WinNonlin using nominal time points. Areas were calculated using the linear trapezoidal rule.

[5] = dog left ventricular plasma, IV bolus
[6] = dog venous plasma, 7 mg, 2-min IV infusion
[7] = dog venous plasma, 7 mg, IV bolus
[8] = dog venous plasma, 7 mg, aerosol inhalation
[9] = left ventricular plasma, inhaled or intranasal, dog left ventricular plasma, aerosol inhalation
[10] = left ventricular plasma, iv, dog left ventricular plasma, 2-min IV infusion
[11] = left ventricular plasma, iv, dog left ventricular plasma, IV bolus
[12] = venous plasma, iv, dog venous plasma, 2-min IV infusion
[13] = venous plasma, iv, dog venous plasma, IV bolus
[14] = inhaled or intranasal, dog left ventricular plasma, aerosol inhalation
[15] = inhaled or intranasal, dog venous plasma, aerosol inhalation

For `CN1CCN(CCCN2c3ccccc3Sc3ccc(Cl)cc32)CC1` [PCZ, prochlorperazine], the oral bioavailability [1] is given as 12.5%, the “adverse effects by clinical observations” value ([2]; 7 mg IV infusion, aerosol, IV bolus sessions) is given as “no adverse effects” and the “body weights between treatment sessions” value ([2]; all animals) is given as “maintained”. The Cmax (dog left ventricular plasma, 7 mg, 2-min IV infusion) was 1365.3 ± 396.2 ng/mL, the Cmax (dog left ventricular plasma, 7 mg, IV bolus) was 3481.8 ± 787.2 ng/mL and the Cmax (dog left ventricular plasma, 7 mg, aerosol inhalation) was 3261.5 ± 974.8 ng/mL. The Cmax (dog left ventricular plasma, 7 mg, aerosol inhalation, listed as prochlorperazine) was 3261 ng/mL, the “time of maximum left ventricular concentration” value [5] was 30 s and the “time of maximum left ventricular concentration” value (dog left ventricular plasma, aerosol inhalation) was 20 s. The AUC0-10 min [6] was 32.2 ± 21.1 ng·h/mL, the AUCinf [6] was 229.9 ± 35.7 ng·h/mL and the Tlast [6] was 8.0 ± 0.0 h. For the same molecule, the Cmax (dog venous plasma, 7 mg, 2-min IV infusion, mean ± SD) was 441.8 ± 269.9 ng/mL, the AUC0-10 min [7] was 63.4 ± 15.7 ng·h/mL and the AUCinf [7] was 305.1 ± 59.3 ng·h/mL. The Tlast [7] was 8.0 ± 0.0 h, the AUC0-10 min [8] was 56.5 ± 10.6 ng·h/mL and the AUCinf [8] was 250.4 ± 58.2 ng·h/mL. It also gave a Tlast [8] of 6.0 ± 2.3 h, a Vd [8] of 2.6 ± 1.1 L/kg and a Cmax (dog venous plasma, 7 mg, thermal aerosol single deep inhalation, mean ± SD) of 886.5 ± 268.3 ng/mL. The “mean maximum concentration, left ventricular plasma relative to venous plasma” value (dog, 2-minute IV infusion) was “approximately 3 fold”, the “venous plasma concentration at time points after 8 hr (undetectable levels)” value (dog, 2-minute IV infusion) was less than 2 ng/mL and the “peak concentration in left ventricular plasma relative to 2-minute IV infusion” value (dog, aerosol and IV bolus treatments) was “approximately 2.5 fold”. The “F, aerosol bioavailability to IV infusion” value (dog, based on venous AUCinf, 7 mg aerosol vs 2-min IV infusion) was 108.7±19% and 108.9 ± 19.2%, the “F, aerosol bioavailability to IV bolus” value (dog, based on venous AUCinf, 7 mg aerosol vs IV bolus) was 82.1 ± 13.1% and the “(ventricular) spike index for inhalation” value (dog, left ventricular Cmax aerosol divided by Cmax 2-min IV infusion) was 2.4. For the same molecule, the Tmax (in vivo; left ventricular and venous plasma, iv, dog left ventricular and venous plasma, 2-minute IV infusion) was 1.25 to 3 min, the AUC(0-t) (in vivo; [9]) was 89.1 ± 13.7 ng·h/mL and the Cmax (in vivo; [9]) was 3260 ± 975 ng/mL. For the same molecule, the Tmax (in vivo; [9]) was 0.33 min, the AUC(0-t) (in vivo; [10]) was 88.5 ± 25.7 ng·h/mL and the AUC(0-t) (in vivo; [11]) was 98.3 ± 15 ng·h/mL. The Cmax (in vivo; [10]) was 1360 ± 396 ng/mL, the Cmax (in vivo; [11]) was 3480 ± 767 ng/mL and the Tmax (in vivo; [10]) was 1.9 min. For the same molecule, the Tmax (in vivo; [11]) was 0.5 min, the Cmax (in vivo; venous plasma, inhaled or intranasal, dog venous plasma, thermal aerosol single deep inhalation, mean ± SD) was 886 ± 268 ng/mL and the half-life (in vivo; venous plasma, inhaled or intranasal, Half-Life, dog venous plasma, aerosol inhalation) was 76.2 ± 17.4 min. For the same molecule, the Tmax (in vivo; venous plasma, inhaled or intranasal, dog venous plasma, aerosol inhalation) was 1 min, the bioavailability (in vivo; venous plasma, inhaled, aerosol bioavailability to IV bolus, 7 mg aerosol vs IV bolus) was 82% and the bioavailability (in vivo; venous plasma, inhaled, aerosol bioavailability to IV infusion, 7 mg aerosol vs 2-min IV infusion) was 109%. The clearance (in vivo; venous plasma, intravenous, inhaled, mean clearances, dog venous, span over the three groups) was 18.9 to 24.8 mL/min/kg, the half-life (in vivo; venous plasma, intravenous, inhaled, mean half-lives, dog venous, span over the three groups) was 76.2 to 105 min and the clearance (in vivo; venous plasma, iv, CL, dog venous plasma, 2-min IV infusion) was 24.8 mL/min/kg. For the same molecule, the clearance (in vivo; venous plasma, iv, CL, dog venous plasma, IV bolus) was 18.9 ± 3.6 mL/min/kg, the Cmax (in vivo; venous plasma, iv, dog venous plasma, 2-min IV infusion, mean ± SD) was 442 ± 270 ng/mL and the Cmax (in vivo; venous plasma, iv, dog venous plasma, 5-second IV bolus, mean ± SD) was 1300 ± 1260 ng/mL. It also gave a half-life (in vivo; venous plasma, iv, Half-Life, dog venous plasma, 2-min IV infusion) of 105 ± 9.6 min, a half-life (in vivo; venous plasma, iv, Half-Life, dog venous plasma, IV bolus) of 82.2 ± 6 min and a Tmax (in vivo; [12]) of 2.5 min. The Tmax (in vivo; [13]) was 1.1 min, the Vd (in vivo; [12]) was 3.8 L/kg and the Vd (in vivo; [13]) was 2.3 ± 0.6 L/kg.
With `Cc1nnc2n1-c1ccc(Cl)cc1C(c1ccccc1)=NC2` [alprazolam] the “body weight change between treatment sessions” value [3] was “no remarkable change”, the “adverse effects by clinical observations” value ([3]; 0.7 mg IV bolus and aerosol sessions) was “no adverse effects” and the “last time concentrations measurable (last sampling time)” value ([4]; dog left ventricle plasma, all cases) was 10 min. For the same molecule, the “median time through which concentrations were measurable” value ([4]; dog venous plasma, IV dosing) was 240 min, the “median time through which concentrations were measurable” value ([4]; dog venous plasma, inhalation dosing) was 360 min and the “mean Cmax for left ventricle plasma relative to venous plasma” value ([4]; dog, both routes of administration) was roughly 7 fold. The “mean Cmax after inhalation as percentage of values after intravenous dosing” value ([4]; dog, left ventricle and venous plasma) was “approximately 70%”, the “bioavailability based upon mean AUC (n=4) by each route” value ([4]; dog, left ventricle sampling) was 81.5% and the “bioavailability based upon mean AUC (n=4) by each route” value ([4]; dog, systemic plasma) was 94.9%. The AUC(0-t) ([4]; dog, inhaled or intranasal, dog venous plasma, aerosol inhalation, read-out: AUC0-240 (converted)) was 38.3 ng·h/mL, the AUC(0-t) ([4]; dog, inhaled or intranasal, dog venous plasma, aerosol inhalation, read-out: AUClast (converted)) was 43.3 ng·h/mL and the AUC(0-t) ([4]; dog, iv, dog venous plasma, IV bolus, read-out: AUC0-240 (converted)) was 42.3 ng·h/mL. For the same molecule, the AUC(0-t) ([4]; dog, iv, dog venous plasma, IV bolus, read-out: AUClast (converted)) was 45.3 ng·h/mL, the bioavailability ([4]; inhaled or intranasal, dog, based on AUC for venous plasma, n=3, read-out: F, mean bioavailability for inhalation administration) was 95.5% and the Cmax [4, 14] was 676 ± 99.5 ng/mL. For the same molecule, the Tmax [4, 14] was 0.25 min, the AUC [4, 15] was 49.7 ng·h/mL and the Cmax ([4]; inhaled or intranasal, dog venous plasma, aerosol inhalation, mean ± SD, n=4) was 102 ± 57.2 ng/mL. The Tmax [4, 15] was 0.5 min, the half-life ([4]; inhaled or intranasal, dog venous plasma, aerosol inhalation, read-out: Half-Life) was 115 ± 12.9 min and the half-life ([4]; intravenous, inhaled, dog venous plasma, both routes, read-out: mean terminal elimination half-life) was roughly 110 min. The bioavailability ([4]; left ventricular plasma, inhaled or intranasal, dog, based on AUC for left ventricle plasma, three animals, read-out: mean bioavailability for inhalation administration) was 85%, the half-life ([4]; left ventricular plasma, intravenous, inhaled, dog left ventricle plasma, both routes, read-out: mean terminal elimination half-life) was roughly 4 min and the Cmax [4, 5] was 967 ± 303 ng/mL. It also gave a Tmax [4, 5] of 0.42 min, a Cmax ([4]; dog venous plasma, 5-second IV bolus, mean ± SD, n=4) of 147 ± 93.5 ng/mL and an AUC ([4]; dog venous plasma, IV bolus) of 52.3 ng·h/mL. The Tmax ([4]; dog venous plasma, IV bolus) was 0.75 min and the half-life ([4]; dog venous plasma, IV bolus, read-out: Half-Life) was 106 ± 22 min.
